Values of other authors as cited in US20100209368A1, “METHOD AND PREPARATION FOR TREATING BALDNESS” (priority 2009, published 2010).

What was measured:
[1] = not given; remark: listed apart in the source

Molecule	solubility in water	stability upon addition of water or ethanol ([1]; PEG or isopropyl myristate with added water or ethanol)	stability in pure solvents ([1]; pure PEG or isopropyl myristate)	solubility in ethanol (ethanol)	solubility in isopropyl myristate (isopropyl myristate)	solubility in polyethylene glycol (PEG) (polyethylene glycol)
zinc pyrithione	sparingly soluble	–	–	–	–	–
O=C(OOC(=O)c1ccccc1)c1ccccc1 [Benzoyl peroxide, benzoyl peroxide]	low solubility	greatly increased	not stable	slight solubility	soluble	soluble
